The values below come from publication PMC4928627 (Journal of Natural Products, 2016).

In data set [1] the test system is CHIKV Indian Ocean strain 899. In words: CHIKV CPE reduction assay. It counts as cell-based, chikungunya virus (CHIKV). To be noted: BGM cells, 0.001 MOI CHIKV 899, day 5 p.i.
The next data set deals with BGM cells. As to the kind of experiment: Cytotoxic/cytostatic effect in uninfected cells. To be noted: compound alone. It counts as cell-based, buffalo green monkey.
For a further data set, the system named is human cancer cell lines. To be noted: growth inhibition; cited from earlier work.

In the case of `C=C1C[C@H]2C[C@]3(O)O[C@H](C[C@@H](O)CC(=O)O[C@@H](CO)C[C@@H]4C/C(=C\C(=O)OC)[C@H](OC(=O)CCCCCCC)[C@@](O)(O4)C(C)(C)/C=C/[C@@H](C1)O2)C[C@H](OC(C)=O)C3(C)C` [compound 19], the “EC50 (concentration of compound that reduces the CHIKV-induced cytopathic effect by 50%)” value in data set [1] is given as “toxicity before any observable cell-protective effect”.

In the case of `C=C1C[C@H]2C[C@]3(O)O[C@H](C[C@@H](O)CC(=O)O[C@@H](CO)C[C@@H]4C/C(=C\C(=O)OC)[C@H](OC(=O)CCCCCCC)[C@@](O)(O4)C(C)(C)/C=C/[C@@H](C1)O2)C[C@H](O)C3(C)C` [compound 18], the “EC50 (concentration of compound that reduces the CHIKV-induced cytopathic effect by 50%)” value in data set [1] was “toxicity before any observable cell-protective effect”.

As to `CCCCCCCC(=O)O[C@H]1/C(=C/C(=O)OC)C[C@H]2C[C@H](CO)OC(=O)C[C@H](O)C[C@@H]3C[C@H](OC(C)=O)C(C)(C)[C@H](C[C@@H]4CCO[C@H](/C=C/C(C)(C)[C@]1(O)O2)O4)O3` [compound 10], the “CC50 (concentration at which cell viability is 50% relative to untreated cells)” value with BGM cells is “nontoxic”. Moreover, the “EC50 (concentration of compound that reduces the CHIKV-induced cytopathic effect by 50%)” value in data set [1] is “potent”.

As for `CCC/C=C/C=C/C(=O)O[C@H]1/C(=C/C(=O)OC)C[C@H]2C[C@H]([C@@H](C)O)OC(=O)C[C@H](O)C[C@@H]3C[C@H](OC(C)=O)C(C)(C)[C@](O)(C[C@@H]4C/C(=C/C(=O)OC)C[C@H](/C=C/C(C)(C)[C@]1(O)O2)O4)O3` [compound 1, Bryostatin 1, reference compound], the “EC50 (concentration of compound that reduces the CHIKV-induced cytopathic effect by 50%)” value in data set [1] (listed as bryostatin) was “ineffective”; in data set [1] (listed as bryostatin 1), “inactive”.

With `CCCCCCCC(=O)O[C@H]1/C(=C/C(=O)OC)C[C@H]2C[C@H](CO)OC(=O)C[C@H](O)C[C@@H]3CCC[C@H](C[C@@H]4CCO[C@H](/C=C/C(C)(C)[C@]1(O)O2)O4)O3` [compound 3], the “effectiveness of the analogue relative to the natural product (bryostatin)” value in the data set with human cancer cell lines is given as 2–3 orders of magnitude.
